Test results published in patent US20200138921A1, “METHODS OF PREVENTING AND TREATING DISEASES CHARACTERIZED BY SYNAPTIC DYSFUNCTION AND NEURODEGENERATION INCLUDING ALZHEIMER'S DISEASE” (The Trustees of Columbia University in the City of New York, priority 2017, published 2020).

Legend:
wild-type mice = test: Dendritic spine density in hippocampus of wild-type mice; format: in vivo; settings: single TOP injection 275 μg
Method: The protocol for diolistic labeling of neurons was adapted from Gan et al. 2000 and Gan et al. 2009. Briefly, 100 mg of tungsten particles (1.1 μm diameter; Bio-Rad) were thoroughly precipitated with 5.0 mg of lipophilic dye (DiI; ThermoFisher) and dissolved in 100 μl of methylene chloride. Dye-coated particles were shot 2-3 times into the cells using the Helios gene gun system (Bio-Rad) and left in 0.1 M PBS overnight to allow dye diffusion along neuronal processes. Cells were post-fixed with 4% paraformaldehyde (Pierce) for 1 hour to preserve staining, then mounted onto glass slides using Gel Mount (Biomeda) and stored at 4° C. in the dark.
Labeled neurons were imaged using the Laser Scanning Microscope (LSM) 510 Meta confocal microscope (Zeiss), equipped with 40×1.3 NA and 100×1.4 NA oil-immersion objectives. The NIH Image software program ImageJ was used the quantify diolistic-labeled cultured neurons. An average of 12 compressed images (20 μm thick) consisting of pyramidal neurons were quantified for each treatment. Spines were counted with NeuronStudio software in a blinded manner and spine density was represented in number of spine per μm dendritic length. Statistical analysis was performed using the statistics package GraphPad Prism.
Controls were wild type mice injected with PBS.

Ube3A [1] = test: Ube3A protein in hippocampus of J20 AD mice; format: in vivo; settings: single bilateral TOP injection 275 μg at 9-10 months, measured at 11-12 months
Excerpt: (§1) The J20 transgenic mouse line also used in the studies expresses a mutated human APP (hAPP: K670N/M671L and V717F) under the control of the platelet-derived growth factor promoter (Mucke et al. 2000). These mice have deficits in learning and memory, inhibition of long-term potentiation, loss of dendritic spines, profuse amyloid plaques, and increased phosphorylation of the tau protein. These mice also have increased RhoA-GTP activity and progressive decrease in spinal density when treated with oligomeric Aβ. See Pozueta et al. 2013.
(§2) Whole frozen mouse hippocampi, human brain specimens, and cultured cells were homogenized in RIPA buffer (ThermoFisher) supplemented with protease and phosphatase inhibitor cocktail (ThermoFisher), using a Teflon dounce homogenizer and centrifuged at 14,000 rpm for 10 minutes at 4° C. Supernatants were collected, normalized by BCA assay (ThermoFisher), and prepared for loading using sample buffer (SB) 4× (ThermoFisher) and dithiothreitol (DTT) 10× (ThermoFisher).
Controls were wild-type mice and J20 mice injected with PBS.

J20 mice = test: Morris water maze in J20 AD mice; format: in vivo; settings: single TOP injection 275 μg
Excerpt: as §1
Mice were trained to find a hidden platform in a circular pool of 1.10 m diameter located in a room with extra maze cues. The location of the platform ([…] diameter) was constant for each mouse during training and was placed 1 cm beneath the surface of the water, maintained at 24° C.±2° C. throughout the duration of the test. At the end of test, the mice were dried off and placed in a clean cage with extra paper towels to prevent hypothermia Animals were then monitored inside their cage until eating, drinking, and ambulating normally Mice were trained in sessions consisting of four trials a day for five consecutive days. Mice started from different quadrants on a random basis during each trial and all four quadrants were used on any given day. The maximum swimming time allowed on each trial was 60 seconds.
Probe trials (1 session: 1 trials/session) were conducted 24 hours after the last training trial. During the probe test the platform was removed and mice were free to swim in the pool for 60 seconds. Time spent in each quadrant was measured. Trial and probe test sessions were recorded and analyzed with a video tracking system (Noldus). After the probe, mice were tested in the visible test for two consecutive days, 2 sessions/day with 3 trials/session to assess whether the mice were able to locate a visible platform (its location varied between the three trials of the same session). The ability of the mice to locate a clearly visible platform was also tested in order to exclude differences in vision, swim speed, and motivation. […]

phospho-tau = test: Western blot of phospho-tau in J20 mice; format: in vivo; settings: TOP treated J20 mice vs control J20
Excerpt: All chemicals used were of the highest grade available. Antibodies used include the following: rabbit anti-Ube3A (Cell Signaling), mouse anti-RhoA (Santa Cruz), rabbit anti-Arc (Santa Cruz), mouse anti-GluR1 (Millipore), rabbit anti-Ephexin-5 (Pierce and Abcam), rabbit anti-phospho-c-Abl (Cell Signaling), rabbit anti-GAPDH (Cell Signaling), rabbit anti-HA (Cell Signaling), anti-PSD95 (Cell Signaling), rabbit anti-NMDAR1 (Millipore), and anti-phospho-tau PHF13 (Cell Signaling).
as §2

[2] = tested on: primary hippocampal neurons; format: cell-based, rat; settings: neurons 21 DIV, oAβ for 24 hours (data not shown)
Ube3A [3] = test: Immunoprecipitation of HA-Ube3A and phospho-tyrosine immunoblot in B35 cells; format: cell-based, rat; settings: B35 cells overexpressing HA-tagged Ube3A, as early as 1 hour
Method: Hippocampal neuron cultures from both male and female rat embryos (E17-18) were prepared following a slightly modified version of the method of Brewer et al. 1996. Hippocampal neurons were kept in culture at 37° C. with 5% CO2 in Neurobasal medium (ThermoFisher) with B27 (ThermoFisher) supplement and Glutamax (ThermoFisher) and plated at a density of 2.5×10^5 cell/ml on dishes coated with poly-D-lysine (ThermoFisher). For the experiments, neurons were used after 14-21 days in vitro (DIV). Rat neuroblastoma B35 cells were cultured and maintained in DMEM (ThermoFisher) supplemented with 10% fetal bovine serum (FBS; Invitrogen) and Glutamax (ThermoFisher).
Cells were collected and homogenized with IP lysis buffer (ThermoFisher) supplemented with Halt protease and phosphatase inhibitor (ThermoFisher). Cell extracts were incubated overnight at 4° C. with 1.0 μg HA antibody (Cell Signaling) or mouse IgG (Cell Signaling) as a negative control Immunocomplexes were incubated with magnetic beads covalently coated with protein G (Invitrogen) on a rotator for 2 hours, at 4° C. The beads were then pelleted with a magnet and washed 3 times with 1× cell lysis buffer (Cell Signaling) supplemented with complete mini protease inhibitor mixture (Roche). The immunocomplexes were resuspended in cell lysis buffer, LDS-sample buffer (Invitrogen), […] dithiothreitol (DTT), and analyzed by Western blotting. […]

Arc = test: Western blot of Arc in hippocampal neurons; format: cell-based, rat; settings: Aβ for 8-10 hours
Method: as §2
(§3) As observed in the Tg2576 mice hippocampi, the levels of Ube3A inversely correlated with the levels of Arc and Ephexin-5. To determine whether this correlation was also observed in hippocampal neurons, the cells were treated with Aβ for 8-10 hours, and whole cell lysates were collected for Western blot analysis.

p53 = test: Western blot of p53 in hippocampal neurons; format: cell-based, rat; settings: Aβ for 8-10 hours
Method: as §2, §3

motor functions or motivation (J20 mice; speed and time to platform) | Compound | dendritic spine density (wild-type mice) | levels of Ube3A in the hippocampus (Ube3A [1]) | learning (Morris water maze latency to platform) (J20 mice) | memory (Morris water maze time in target quadrant) (J20 mice) | phospho-tau levels (phospho-tau) | cell death [2] | phospho-tyrosinated Ube3A (pTyr-Ube3A) (Ube3A [3]) | levels of Arc protein (Arc) | levels of p53 (p53)
no effect | CC[C@@]1(O)C(=O)OCc2c1cc1n(c2=O)Cc2cc3c(CN(C)C)c(O)ccc3nc2-1 [TOP, topotecan] | significant increase | increased | did not affect | significantly increased | decreased |  |  |  | 
 | oAβ: synthetic soluble oligomeric Aβ1-42 |  |  |  |  |  | No cell death | significant increase | significant increase | did not show any altered levels
